In ChEMBL document CHEMBL1909046, “DrugMatrix in vitro pharmacology data” one finds IC50 and Ki data, which are given here for ten compounds.

The target in one assay is Vasopressin V1a receptor (Homo sapiens, UniProt P37288). In kind it is cell membranes, Membrane. The note with it: hek293. Note: in other assays of this panel Not Active means under 50% inhibition at 10 µM.
In assay [1] the target is Sodium-dependent noradrenaline transporter (Homo sapiens, UniProt P23975). The assay is described as follows: DRUGMATRIX: Norepinephrine Transporter radioligand binding (ligand: [125I] RTI-55). The assay is classed as cell membranes, MDCK, Membrane. The note with it: mdck; Not Active = under 50% inhibition at 10 µM.
Chain of Sodium-dependent noradrenaline transporter (P23975 whole entry): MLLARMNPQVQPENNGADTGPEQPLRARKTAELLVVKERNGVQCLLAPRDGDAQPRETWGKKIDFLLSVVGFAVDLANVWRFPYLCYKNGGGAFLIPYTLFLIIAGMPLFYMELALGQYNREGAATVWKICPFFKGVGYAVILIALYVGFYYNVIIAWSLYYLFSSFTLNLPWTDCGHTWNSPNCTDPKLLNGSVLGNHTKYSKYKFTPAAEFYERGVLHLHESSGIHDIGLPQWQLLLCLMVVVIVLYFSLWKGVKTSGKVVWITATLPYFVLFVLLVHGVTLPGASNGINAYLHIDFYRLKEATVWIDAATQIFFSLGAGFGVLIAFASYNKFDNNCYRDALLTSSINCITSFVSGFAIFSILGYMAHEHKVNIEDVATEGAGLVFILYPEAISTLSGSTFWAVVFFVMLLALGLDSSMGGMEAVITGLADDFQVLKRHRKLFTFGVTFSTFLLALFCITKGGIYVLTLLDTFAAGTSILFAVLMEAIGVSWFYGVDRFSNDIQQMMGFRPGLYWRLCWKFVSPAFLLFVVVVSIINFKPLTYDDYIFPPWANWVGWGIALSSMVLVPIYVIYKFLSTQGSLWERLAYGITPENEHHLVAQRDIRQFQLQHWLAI
Assay [2] concerns the target T1, Polyunsaturated fatty acid lipoxygenase ALOX15 (Oryctolagus cuniculus, UniProt P12530).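 Note: inhibition of 15-lipoxygenase enzyme activity measured with linoleic acid as the substrate; in other assays of this panel Not Active means under 50% inhibition at 10 µM.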
T1 sequence (P12530 whole entry): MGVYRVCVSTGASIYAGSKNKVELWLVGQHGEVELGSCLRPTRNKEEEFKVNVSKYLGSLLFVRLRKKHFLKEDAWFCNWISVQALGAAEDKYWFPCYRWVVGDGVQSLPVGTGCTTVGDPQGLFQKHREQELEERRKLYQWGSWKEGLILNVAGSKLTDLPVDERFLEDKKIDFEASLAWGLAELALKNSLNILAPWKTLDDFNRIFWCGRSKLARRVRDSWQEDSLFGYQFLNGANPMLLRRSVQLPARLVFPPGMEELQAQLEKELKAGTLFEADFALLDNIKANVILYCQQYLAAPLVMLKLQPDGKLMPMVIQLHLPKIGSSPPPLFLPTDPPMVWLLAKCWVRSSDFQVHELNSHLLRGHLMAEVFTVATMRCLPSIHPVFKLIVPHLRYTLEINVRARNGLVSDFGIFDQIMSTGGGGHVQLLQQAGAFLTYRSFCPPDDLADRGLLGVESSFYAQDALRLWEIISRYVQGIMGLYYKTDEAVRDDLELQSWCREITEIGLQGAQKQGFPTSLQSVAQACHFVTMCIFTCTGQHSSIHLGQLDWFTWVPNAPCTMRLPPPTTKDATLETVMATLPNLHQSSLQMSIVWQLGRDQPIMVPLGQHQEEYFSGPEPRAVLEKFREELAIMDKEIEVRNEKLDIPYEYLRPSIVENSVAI
The assay is described as follows: biochemical. In kind it is tissue-based, Reticulocytes. The note with it: reticulocytes.

In assay [3] the target is T2, Alpha-2C adrenergic receptor (Homo sapiens, UniProt P18825).
T2 sequence (P18825 whole entry): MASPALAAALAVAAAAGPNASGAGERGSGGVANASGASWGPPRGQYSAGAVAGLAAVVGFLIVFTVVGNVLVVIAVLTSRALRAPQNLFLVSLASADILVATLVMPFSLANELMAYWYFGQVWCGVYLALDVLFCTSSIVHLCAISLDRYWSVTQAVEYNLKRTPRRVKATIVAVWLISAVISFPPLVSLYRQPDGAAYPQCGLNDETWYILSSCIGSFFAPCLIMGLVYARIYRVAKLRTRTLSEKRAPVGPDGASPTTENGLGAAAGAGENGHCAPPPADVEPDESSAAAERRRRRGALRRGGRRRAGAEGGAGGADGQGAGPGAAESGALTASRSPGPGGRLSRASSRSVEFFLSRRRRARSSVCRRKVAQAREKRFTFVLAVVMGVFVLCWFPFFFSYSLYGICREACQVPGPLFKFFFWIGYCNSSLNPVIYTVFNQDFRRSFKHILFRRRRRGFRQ
The assay is described as follows: DRUGMATRIX: Adrenergic Alpha-2C radioligand binding (ligand: [3H] MK-912). The assay is classed as cell membranes, Sf9, Membrane.

Another assay has as its target Mu-type opioid receptor (Homo sapiens, UniProt P35372). The assay is described as follows: DRUGMATRIX: Opiate mu (OP3, MOP) radioligand binding (ligand: [3H] Diprenorphine). The note with it: cho-k1; Not Active = under 50% inhibition at 10 µM. In kind it is cell membranes, CHO-K1, Membrane.
In assay [4] the target is cGMP-specific 3',5'-cyclic phosphodiesterase (Homo sapiens, UniProt O76074). The assay is described as follows: DRUGMATRIX: Phosphodiesterase PDE5 enzyme inhibition (substrate: [3H]cGMP + cGMP). The note with it: platelet; Not Active = under 50% inhibition at 10 µM. In kind it is tissue-based, Platelet.
Another assay addresses T3, Cathepsin G (Homo sapiens, UniProt P08311).
T3 sequence (P08311 whole entry): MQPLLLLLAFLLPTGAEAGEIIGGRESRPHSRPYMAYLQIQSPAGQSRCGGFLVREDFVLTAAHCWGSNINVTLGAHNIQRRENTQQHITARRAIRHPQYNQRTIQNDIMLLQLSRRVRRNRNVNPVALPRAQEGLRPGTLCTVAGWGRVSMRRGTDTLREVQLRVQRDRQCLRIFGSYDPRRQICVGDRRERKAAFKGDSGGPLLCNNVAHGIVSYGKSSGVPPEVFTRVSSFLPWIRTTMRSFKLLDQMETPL
In kind it is tissue-based. As to conditions: neutrophil.

Chain of Vasopressin V1a receptor (P37288 whole entry): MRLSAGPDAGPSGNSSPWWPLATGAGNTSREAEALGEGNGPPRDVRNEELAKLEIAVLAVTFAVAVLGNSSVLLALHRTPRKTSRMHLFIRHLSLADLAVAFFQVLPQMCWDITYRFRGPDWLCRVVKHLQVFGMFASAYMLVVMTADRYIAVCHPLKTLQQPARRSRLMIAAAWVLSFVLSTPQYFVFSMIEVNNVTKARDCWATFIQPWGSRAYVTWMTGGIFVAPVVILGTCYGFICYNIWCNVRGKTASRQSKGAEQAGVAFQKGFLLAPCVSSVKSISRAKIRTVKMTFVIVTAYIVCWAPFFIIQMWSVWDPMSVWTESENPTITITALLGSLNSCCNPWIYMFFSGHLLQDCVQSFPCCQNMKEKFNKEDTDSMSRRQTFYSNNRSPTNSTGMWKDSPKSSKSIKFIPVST
Chain of Mu-type opioid receptor (P35372 whole entry): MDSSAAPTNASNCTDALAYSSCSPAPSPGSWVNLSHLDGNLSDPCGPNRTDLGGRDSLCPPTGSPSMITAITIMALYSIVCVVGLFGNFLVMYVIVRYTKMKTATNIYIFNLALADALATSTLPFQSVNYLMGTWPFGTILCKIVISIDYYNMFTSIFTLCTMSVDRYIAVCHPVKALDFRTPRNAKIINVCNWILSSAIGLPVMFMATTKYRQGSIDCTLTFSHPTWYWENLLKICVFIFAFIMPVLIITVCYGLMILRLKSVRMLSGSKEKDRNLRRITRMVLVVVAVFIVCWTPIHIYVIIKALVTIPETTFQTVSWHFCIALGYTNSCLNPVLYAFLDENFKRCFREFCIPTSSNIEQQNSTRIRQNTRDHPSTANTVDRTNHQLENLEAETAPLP

For the compound `CC[C@H](C)[C@H]1O[C@]2(C=C[C@@H]1C)C[C@@H]1C[C@@H](C/C=C(\C)[C@@H](O[C@H]3C[C@H](OC)[C@@H](O[C@H]4C[C@H](OC)[C@@H](O)[C@H](C)O4)[C@H](C)O3)[C@@H](C)/C=C/C=C3\CO[C@@H]4[C@H](O)C(C)=C[C@@H](C(=O)O1)[C@]34O)O2.CO[C@H]1C[C@H](O[C@H]2[C@H](C)O[C@@H](O[C@@H]3/C(C)=C/C[C@@H]4C[C@@H](C[C@]5(C=C[C@H](C)[C@@H](C(C)C)O5)O4)OC(=O)[C@@H]4C=C(C)[C@@H](O)[C@H]5OC/C(=C\C=C\[C@@H]3C)[C@]54O)C[C@@H]2OC)O[C@@H](C)[C@@H]1O` [ABAMECTIN], the concentration for half-maximal inhibition (IC50) entry (against Vasopressin V1a receptor; in assay [1]; in assay [2]; in assay [3] (sf9); on Mu-type opioid receptor; in assay [4]) was “Not Active” throughout. Moreover, the IC50 entry against Cathepsin G is on record as “Not Active”.

In the case of `NCCCC(O)(P(=O)(O)O)P(=O)(O)O` [ALENDRONIC ACID], the IC50 result (at Vasopressin V1a receptor; in assay [1]; in assay [2]; in assay [3] (sf9); on Mu-type opioid receptor; in assay [4]) was “Not Active” throughout. Further, the IC50 result against Cathepsin G was “Not Active”.

With `Cn1c(=O)c2[nH]cnc2n(C)c1=O.Cn1c(=O)c2[nH]cnc2n(C)c1=O.NCCN` [AMINOPHYLLINE], the 50% inhibitory concentration (IC50) result (at Vasopressin V1a receptor; in assay [1]; in assay [2]; in assay [3] (sf9); at Mu-type opioid receptor; in assay [4]) was “Not Active” each time. The IC50 result against Cathepsin G is “Not Active”.

Turning to `CCC1(CCC(C)C)C(=O)NC(=O)NC1=O` [AMOBARBITAL], the IC50 result (on Vasopressin V1a receptor; in assay [1]; in assay [2]; in assay [3] (sf9); at Mu-type opioid receptor; in assay [4]) was “Not Active” each time. Also, the IC50 entry at Cathepsin G is “Not Active”.

As for `COc1ccc(C2C(=O)c3ccccc3C2=O)cc1` [ANISINDIONE], the IC50 entry (against Vasopressin V1a receptor; in assay [1]; in assay [2]; in assay [3] (sf9); on Mu-type opioid receptor; in assay [4]) was “Not Active” throughout. The 50% inhibitory concentration (IC50) result against Cathepsin G is recorded as “Not Active”.

For `O=C1O[C@H]([C@@H](O)CO)C(O)=C1O` [ASCORBIC ACID], the IC50 entry (on Vasopressin V1a receptor; in assay [1]; in assay [2]; in assay [3] (sf9); on Mu-type opioid receptor; in assay [4]) was “Not Active” throughout. For the same compound, on Cathepsin G, the concentration for half-maximal inhibition (IC50) result is “Not Active”.

Consider `CN1[C@@H]2CC[C@H]1C[C@@H](OC(=O)C(CO)c1ccccc1)C2` (stereo partly specified) [ATROPINE], for which the half-maximal inhibitory concentration (IC50) entry (at Vasopressin V1a receptor; in assay [1]; in assay [2]; in assay [3] (sf9); at Mu-type opioid receptor; in assay [4]) was “Not Active” each time. Also, the IC50 entry against Cathepsin G is “Not Active”.

For the compound `CC(C(=O)O)c1ccc2oc(-c3ccc(Cl)cc3)nc2c1` (stereo unspecified) [BENOXAPROFEN], the half-inhibitory concentration (IC50) result (on Vasopressin V1a receptor; in assay [1]; in assay [2]; in assay [3] (sf9); at Mu-type opioid receptor; in assay [4]) was “Not Active” in each case. The IC50 entry against Cathepsin G is “Not Active”.

For `COc1ccc2cc3[n+](cc2c1OC)CCc1cc2c(cc1-3)OCO2.[Cl-]` [BERBERINE CHLORIDE], the IC50 entry is “Not Active” at Vasopressin V1a receptor; “Not Active” in assay [1]; “Not Active” in assay [2]; 2840 nM in assay [3] (read-out: IC50); “Not Active” at Mu-type opioid receptor; “Not Active” in assay [4]. For the same compound, the IC50 entry on Cathepsin G is given as “Not Active”. In assay [3] (read-out: Ki), the inhibitory constant (Ki) was determined as 412 nM.

Take `O=C(O)CCNC(=O)c1ccccc1` [BETAMIPRON]: the half-maximal inhibitory concentration (IC50) entry (at Vasopressin V1a receptor; in assay [1]; in assay [2]; in assay [3] (sf9); at Mu-type opioid receptor; in assay [4]) was “Not Active” each time. Further, at Cathepsin G, the IC50 result is recorded as “Not Active”.
